Assay results reported in patent publication US20100255580A1, “Differentiation of Human Embryonic Stem Cells” (LIFESCCAN, INC., priority 2007, published 2010).
Where two headings read alike, the source gives them in different places.

System: H9 embryonic stem cells
Type: cell-based, human
Details: DE treatment in low serum
Description: Controls for each group included cells plated on […]-coated dishes and cultured in MEF-conditioned medium or cells plated on MEFs and cultured in ES medium. All groups contained three biological replicates and each biological replicate was repeated on two separate gene chips.
Sample preparation, hybridization, and image analysis were performed according to the Affymetrix Human Genome U133 Plus 2.0 Array. Following normalization and a log transformation, data analysis was performed using OmniViz® software (MA) and […] (VizXLabs, WA). Significant differences in gene expression between the samples were evaluated using analysis of variance and an F-test with adjusted P-value (Benjamini and
Hochberg correction) of ≦b 0.05. Only genes with a present call in at least one group were included in the analysis.

Activin A: a member of the TGFβ superfamily; R&D Systems; Group 2 = Activin A (100 ng/ml)
mean normalized intensity (log format), gene: DKFZP566K1924 protein (on MATRIGEL): 2.882 | mean normalized intensity (log format), gene: ESTs (r2006) (on MATRIGEL): 1.5857 | mean normalized intensity (log format), gene: ESTs (r2025) (on MATRIGEL): 1.531 | mean normalized intensity (log format), gene: ESTs (r2032) (on MATRIGEL): 0.1336 | mean normalized intensity (log format), gene: ESTs (r2038) (on MATRIGEL): 3.262 | mean normalized intensity (log format), gene: ESTs (r2134) (on MATRIGEL): −1.3795 | mean normalized intensity (log format), gene: ESTs (r2148) (on MATRIGEL): 4.454 | mean normalized intensity (log format), gene: ESTs, Moderately similar to ALU2_HUMAN ALU SUBFAMILY SB SEQUENCE CONTAMINATION WARNING ENTRY (H. sapiens) (on MATRIGEL): 4.241 | mean normalized intensity (log format), gene: H. sapiens mRNA for B-HLH DNA binding protein. (on MATRIGEL): 5.43 | mean normalized intensity (log format), gene: Homo sapiens BCL2-interacting killer (apoptosis-inducing) (BIK), mRNA. (on MATRIGEL): 4.3 | mean normalized intensity (log format), gene: Homo sapiens Charot-Leyden crystal protein (CLC), mRNA. (on MATRIGEL): 3.301 | mean normalized intensity (log format), gene: Homo sapiens HES-related repressor protein 1 HERP1 mRNA, complete cds. (on MATRIGEL): 2.806 | mean normalized intensity (log format), gene: Homo sapiens HSPC156 protein (HSPC156), mRNA. (on MATRIGEL): 0.7862 | mean normalized intensity (log format), gene: Homo sapiens KIAA0469 gene product (KIAA0469), mRNA. (on MATRIGEL): 4.031 | mean normalized intensity (log format), gene: Homo sapiens PNAS-123 mRNA, complete cds (on MATRIGEL): 1.597 | mean normalized intensity (log format), gene: Homo sapiens Wilms tumor 1 (WT1), transcript variant D, mRNA. (on MATRIGEL): 2.405 | mean normalized intensity (log format), gene: Homo sapiens cDNA FLJ11398 fis, clone HEMBA1000637. (on MATRIGEL): 2.5268 | mean normalized intensity (log format), gene: Homo sapiens cDNA: FLJ22547 fis, clone HSI00356 (on MATRIGEL): 4.294 | mean normalized intensity (log format), gene: Homo sapiens cadherin 6, type 2, K-cadherin (fetal kidney) (CDH6), mRNA. (on MATRIGEL): 0.8248 | mean normalized intensity (log format), gene: Homo sapiens chorionic somatomammotropin hormone 2 (CSH2), transcript variant 1, mRNA. (on MATRIGEL): 1.124 | mean normalized intensity (log format), gene: Homo sapiens chorionic somatomammotropin hormone 2 (CSH2), transcript variant 4, mRNA. (on MATRIGEL): 0.8122 | mean normalized intensity (log format), gene: Homo sapiens galanin receptor 1 (GALR1), mRNA. (on MATRIGEL): 2.507 | mean normalized intensity (log format), gene: Homo sapiens growth hormone 2 (GH2), transcript variant 2, mRNA. (on MATRIGEL): 0.9226 | mean normalized intensity (log format), gene: Homo sapiens hypothetical protein FLJ20075 (FLJ20075), mRNA. (on MATRIGEL): −0.3592 | mean normalized intensity (log format), gene: Homo sapiens mRNA for SCCA2b, complete cds. (on MATRIGEL): 3.329 | mean normalized intensity (log format), gene: Homo sapiens mRNA; cDNA DKFZp586P1124 (from clone DKFZp586P1124) (on MATRIGEL): 0.4856 | mean normalized intensity (log format), gene: Homo sapiens methyl-CpG binding protein MBD2 (MBD2) mRNA, complete cds. (on MATRIGEL): 0.4906 | mean normalized intensity (log format), gene: Homo sapiens tachykinin, precursor 1 (TAC1), transcript variant beta, mRNA. (on MATRIGEL): 2.773 | mean normalized intensity (log format), gene: Homo sapiens testis expressed sequence 14 (TEX14), mRNA. (on MATRIGEL): 3.512 | mean normalized intensity (log format), gene: Homo sapiens, Similar to LIM homeobox protein 8, clone IMAGE: 4839343, mRNA. (on MATRIGEL): −0.06288 | mean normalized intensity (log format), gene: Homo sapiens, Similar to cadherin 6, type 2, K-cadherin (fetal kidney), clone MGC: 1470, mRNA, complete cds. (on MATRIGEL): 2.547 | mean normalized intensity (log format), gene: Homo sapiens, Similar to hypothetical protein FLJ10058, clone MGC: 34305 IMAGE: 5167647, mRNA, complete cds. (on MATRIGEL): 1.698 | mean normalized intensity (log format), gene: Homo sapiens, Similar to hypothetical protein FLJ32001, clone MGC: 39559 IMAGE: 4828136, mRNA, complete cds. (on MATRIGEL): 0.5207 | mean normalized intensity (log format), gene: Homo sapiens, clone IMAGE: 4067166, mRNA (on MATRIGEL): 0.1959 | mean normalized intensity (log format), gene: Homo sapiens, clone IMAGE: 4828836, mRNA. (on MATRIGEL): 0.9729 | mean normalized intensity (log format), gene: Homo sapiens, serine (or cysteine) proteinase inhibitor, clade B (ovalbumin), member 3, clone MGC: 12244, mRNA, complete cds. (on MATRIGEL): 1.969 | mean normalized intensity (log format), gene: Human mRNA upregulated during camptothecin-induced apoptosis of U937 cells. (on MATRIGEL): 0.4945 | mean normalized intensity (log format), gene: Human platelet-derived growth factor alpha-receptor (PDGFRA) mRNA, exons 13-16 (on MATRIGEL): 2.445 | mean normalized intensity (log format), gene: KIAA1151 protein (on MATRIGEL): 0.6425 | mean normalized intensity (log format), gene: caldesmon 1 (on MATRIGEL): 7.092 | mean normalized intensity (log format), gene: nuclear receptor subfamily 1, group I, member 3 (on MATRIGEL): 1.779 | mean normalized intensity (log format), gene: paternally expressed 3 (r2033) (on MATRIGEL): 2.876 | mean normalized intensity (log format), gene: paternally expressed 3 (r2093) (on MATRIGEL): 2.874 | mean normalized intensity (log format), gene: DKFZP566K1924 protein (on MEFS): 1.391 | mean normalized intensity (log format), gene: ESTs (r2006) (on MEFS): −1.3 | mean normalized intensity (log format), gene: ESTs (r2025) (on MEFS): 1.373 | mean normalized intensity (log format), gene: ESTs (r2032) (on MEFS): −1.566 | mean normalized intensity (log format), gene: ESTs (r2038) (on MEFS): 1.5682 | mean normalized intensity (log format), gene: ESTs (r2134) (on MEFS): −0.9461 | mean normalized intensity (log format), gene: ESTs (r2148) (on MEFS): 5.334 | mean normalized intensity (log format), gene: ESTs, Moderately similar to ALU2_HUMAN ALU SUBFAMILY SB SEQUENCE CONTAMINATION WARNING ENTRY (H. sapiens) (on MEFS): 3.874 | mean normalized intensity (log format), gene: H. sapiens mRNA for B-HLH DNA binding protein. (on MEFS): 3.451 | mean normalized intensity (log format), gene: Homo sapiens BCL2-interacting killer (apoptosis-inducing) (BIK), mRNA. (on MEFS): 3.562 | mean normalized intensity (log format), gene: Homo sapiens Charot-Leyden crystal protein (CLC), mRNA. (on MEFS): 2.1096 | mean normalized intensity (log format), gene: Homo sapiens HES-related repressor protein 1 HERP1 mRNA, complete cds. (on MEFS): 2.406 | mean normalized intensity (log format), gene: Homo sapiens HSPC156 protein (HSPC156), mRNA. (on MEFS): 1.296 | mean normalized intensity (log format), gene: Homo sapiens KIAA0469 gene product (KIAA0469), mRNA. (on MEFS): 2.565 | mean normalized intensity (log format), gene: Homo sapiens PNAS-123 mRNA, complete cds (on MEFS): 1.847 | mean normalized intensity (log format), gene: Homo sapiens Wilms tumor 1 (WT1), transcript variant D, mRNA. (on MEFS): −2.435 | mean normalized intensity (log format), gene: Homo sapiens cDNA FLJ11398 fis, clone HEMBA1000637. (on MEFS): 1.849 | mean normalized intensity (log format), gene: Homo sapiens cDNA: FLJ22547 fis, clone HSI00356 (on MEFS): 2.095 | mean normalized intensity (log format), gene: Homo sapiens cadherin 6, type 2, K-cadherin (fetal kidney) (CDH6), mRNA. (on MEFS): −0.8763 | mean normalized intensity (log format), gene: Homo sapiens chorionic somatomammotropin hormone 2 (CSH2), transcript variant 1, mRNA. (on MEFS): 2.616 | mean normalized intensity (log format), gene: Homo sapiens chorionic somatomammotropin hormone 2 (CSH2), transcript variant 4, mRNA. (on MEFS): 2.218 | mean normalized intensity (log format), gene: Homo sapiens galanin receptor 1 (GALR1), mRNA. (on MEFS): −0.338 | mean normalized intensity (log format), gene: Homo sapiens growth hormone 2 (GH2), transcript variant 2, mRNA. (on MEFS): 1.4679 | mean normalized intensity (log format), gene: Homo sapiens hypothetical protein FLJ20075 (FLJ20075), mRNA. (on MEFS): −0.06528 | mean normalized intensity (log format), gene: Homo sapiens mRNA for SCCA2b, complete cds. (on MEFS): 0.568 | mean normalized intensity (log format), gene: Homo sapiens mRNA; cDNA DKFZp586P1124 (from clone DKFZp586P1124) (on MEFS): −3.094
